Patent US9060519B2, “Insecticidally active pyridyl-thiazole and pyridyl-thiadiazole derivatives” (Syngenta Participations AG, priority 2011, dated 2015)

Test system: Myzus persicae (green peach aphid)
Test: Activity against Myzus persicae (mixed population, feeding/residual contact activity, preventive)
Format: in vivo
Conditions: foliar, 144 h, sunflower leaf discs sprayed, aphids of mixed ages, mortality after 6 days
Description: Activity against Myzus persicae (Green Peach Aphid)
(Mixed Population, Feeding/Residual Contact Activity, Preventive)
Sunflower leaf discs were placed on agar in a 24-well microtiter plate and sprayed with test solutions. After drying, the leaf discs were infested with an aphid population of mixed ages. After an incubation period of 6 days, samples were checked for mortality.
In the case of `COc1nc(OC)nc(O/N=C(\C)c2sc(-c3cccnc3)nc2C)n1` [Compound 1.060], the pest or weed control at 200 ppm is reported as > 80%. In the case of `C/C(=N\Oc1ncccn1)c1sc(-c2cccnc2)nc1C` [Compound 1.013], the pest or weed control at 200 ppm is reported as > 80%. For `C/C(=N\Oc1nc(C)cc(C)n1)c1sc(-c2cccnc2)nc1Cl` [Compound 1.057], the pest or weed control at 200 ppm was > 80%. In the case of `C/C(=N\Oc1ncccc1SC(C)C)c1sc(-c2cccnc2)nc1C` [Compound 1.056], the pest or weed control at 200 ppm is reported as > 80%. With `C/C(=N\Oc1ncccn1)c1sc(-c2cccnc2)nc1Cl` [Compound 1.050] the pest or weed control at 200 ppm was > 80%. In the case of `CC/C(=N\Oc1nc(OC)cc(OC)n1)c1sc(-c2cccnc2)nc1Cl` [Compound 1.049], the pest or weed control at 200 ppm is reported as > 80%. In the case of `CC/C(=N\Oc1ncccn1)c1sc(-c2cccnc2)nc1Cl` [Compound 1.048], the pest or weed control at 200 ppm is reported as > 80%. With `C/C(=N\Oc1nc(C)cc(C)n1)c1sc(-c2cccnc2)nc1C` [Compound 1.010] the pest or weed control at 200 ppm was > 80%. In the case of `CC/C(=N\Oc1nc(C)cc(C)n1)c1sc(-c2cccnc2)nc1Cl` [Compound 1.047], the pest or weed control at 200 ppm is reported as > 80%. In the case of `C/C(=N\Oc1ncccn1)c1cnc(-c2cccnc2)s1` [Compound 1.041, 1-[2-(3-pyridyl)thiazol-5-yl]-N-pyrimidin-2-yloxy-ethanimine], the pest or weed control at 200 ppm is reported as > 80%. With `COc1cc(OC)nc(O/N=C(\C)c2sc(-c3cccnc3)nc2Cl)n1` [Compound 1.058, 1-[4-chloro-2-(3-pyridyl)thiazol-5-yl]-N-(4,6-dimethoxypyrimidin-2-yl)oxy-ethanimine] the pest or weed control at 200 ppm was > 80%. In the case of `C/C(=N\Oc1cc(Cl)cnc1Cl)c1sc(-c2cccnc2)nc1C` [Compound 1.008], the pest or weed control at 200 ppm is reported as > 80%. With `C/C(=N\Oc1nccc(C)n1)c1sc(-c2cccnc2)nc1C` [Compound 1.029] the pest or weed control at 200 ppm was > 80%. For `COCc1cc(C)nc(O/N=C(\C)c2sc(-c3cccnc3)nc2C)n1` [Compound 1.032], the pest or weed control at 200 ppm was > 80%. With `COc1cnc(O/N=C(\C)c2sc(-c3cccnc3)nc2C)nc1` [Compound 1.014] the pest or weed control at 200 ppm was > 80%. In the case of `COc1cc(OC)nc(O/N=C(\C)c2sc(-c3cccnc3)nc2C)n1` [Compound 1.009], the pest or weed control at 200 ppm is reported as > 80%.

Test system: Plutella xylostella (diamond back moth)
Test: Plutella xylostella (larvicide, feeding/residual contact activity, preventive)
Format: in vivo
Conditions: 200 ppm; artificial diet in MTP, L2 larvae; larval mortality, antifeedant, growth regulation after 5 days
Description: Plutella xylostella (Diamond Back Moth) (Larvicide, Feeding/Residual Contact Activity, Preventive) 24-well microtiter plate (MTP) with artificial diet was treated with test solutions by pipetting. After drying, the MTP's were infested with larvae (L2)(10-15 per well). After an incubation period of 5 days, samples were checked for larval mortality, antifeedant and growth regulation.
With `C/C(=N\Oc1ccc(C#N)cn1)c1sc(-c2cccnc2)nc1C` [Compound 1.012] the activity was “over 80%”.

Test system: not given
Test: not given
Conditions: not given
`Cc1cc(C)nc(O/N=C(/c2sc(-c3cccnc3)nc2Cl)C2CC2)n1` [Compound 1.045] gave a melting point of 53 to 55 °C. Work on `CSc1cc(F)cnc1O/N=C(\C)c1sc(-c2cccnc2)nc1C` [Compound 1.055] yielded a melting point of 149 to 151 °C. `Clc1nc(-c2cccnc2)sc1/C(=N/Oc1ncccn1)C1CC1` [Compound 1.044] showed a melting point of 127 to 130 °C. Compound `COc1cc(OC)nc(O/N=C(/c2sc(-c3cccnc3)nc2Cl)C(F)(F)F)n1` [Compound 1.043] has a melting point of 109 to 111 °C. `COc1ccc(Cl)c(-c2ccc(O/N=C(\C)c3sc(-c4cccnc4)nc3C)nn2)c1` [Compound 1.003] showed a melting point of 169 to 171 °C. Work on `C/C(=N\Oc1ccc(C)nn1)c1sc(-c2cccnc2)nc1C` [Compound 1.004] yielded a melting point of 179 to 181 °C. In the case of `C/C(=N\Oc1ncc(C(F)(F)F)cn1)c1sc(-c2cccnc2)nc1C` [Compound 1.015], the melting point is reported as 165 to 166 °C. `C/C(=N\Oc1ncc([N+](=O)[O-])cn1)c1sc(-c2cccnc2)nc1C` [Compound 1.018] showed a melting point of 174 to 176 °C. For `COc1ccc(O/N=C(\C)c2sc(-c3cccnc3)nc2C)nn1` [Compound 1.005], the melting point was 167 to 169 °C. In the case of `C#CCOc1ccc(O/N=C(\C)c2sc(-c3cccnc3)nc2C)nn1` [Compound 1.002], the melting point is reported as 152 to 154 °C. `C/C(=N\Oc1ccc2nnc(C)n2n1)c1sc(-c2cccnc2)nc1C` [Compound 1.001] gave a melting point of 200 to 202 °C. Work on `C/C(=N\Oc1ncccc1Cl)c1sc(-c2cccnc2)nc1C` [Compound 1.007] yielded a melting point of 126 to 128 °C.
